Results reported in patent US20220274914A1, “TRICYCLIC DERIVATIVES AS HYPOXIA INDUCIBLE FACTOR-2(ALPHA) INHIBITORS” (NIKANG THERAPEUTICS, INC., priority 2019, published 2022).

The compounds below were run against T1, HIF-2α (Homo sapiens, UniProt Q99814) (assay: VEGF ELISA Assay). Conditions: VEGF expression in 786-0 cells; VEGF in culture medium by ELISA; four parameter dose-response fit.
T1 construct: endogenous in cells; host or cells: 786-0 cells
T1 sequence (Q99814 whole entry): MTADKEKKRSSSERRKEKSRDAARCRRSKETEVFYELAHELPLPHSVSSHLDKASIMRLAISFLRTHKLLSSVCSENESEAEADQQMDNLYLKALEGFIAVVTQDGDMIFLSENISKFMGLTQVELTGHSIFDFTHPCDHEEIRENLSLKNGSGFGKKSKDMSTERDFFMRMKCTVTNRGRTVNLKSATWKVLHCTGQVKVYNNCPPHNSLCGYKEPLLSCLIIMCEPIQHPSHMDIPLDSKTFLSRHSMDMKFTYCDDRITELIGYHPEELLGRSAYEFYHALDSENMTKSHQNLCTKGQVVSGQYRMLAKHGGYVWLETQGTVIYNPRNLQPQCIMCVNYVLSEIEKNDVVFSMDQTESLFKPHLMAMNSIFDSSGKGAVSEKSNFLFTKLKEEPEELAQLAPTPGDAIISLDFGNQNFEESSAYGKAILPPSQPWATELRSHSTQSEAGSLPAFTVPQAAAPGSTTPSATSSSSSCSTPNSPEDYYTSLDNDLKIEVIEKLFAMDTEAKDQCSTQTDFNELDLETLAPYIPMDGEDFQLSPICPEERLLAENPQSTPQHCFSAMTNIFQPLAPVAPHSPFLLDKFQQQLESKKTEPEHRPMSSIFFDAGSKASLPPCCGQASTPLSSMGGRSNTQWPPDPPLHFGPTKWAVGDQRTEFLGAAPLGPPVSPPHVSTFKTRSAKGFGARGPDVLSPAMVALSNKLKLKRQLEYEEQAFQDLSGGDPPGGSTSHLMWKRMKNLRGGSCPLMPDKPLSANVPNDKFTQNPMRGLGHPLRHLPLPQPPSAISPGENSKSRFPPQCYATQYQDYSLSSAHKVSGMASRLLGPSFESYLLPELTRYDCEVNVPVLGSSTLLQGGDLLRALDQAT
Assay type: cell-based
Description: The ability of the disclosed compounds to inhibit HIF-2α was measured by determining VEGF expression in 786-0 cells. About 7500 786-0 cells were seeded into each well of a 96-well, white, clear bottom plate (07-200-566, Fisher Scientific) with 200 ul growth medium. Four hours later, compounds were dispensed into wells by Tecan D300e digital dispenser with starting concentration of 10 uM and […] of dilution down to 1 nM as final concentration. Each concentration of treatment was performed in duplicate. About 20 hours later, medium was removed and fresh medium was added, followed by compounds treatment as described above. 24 hours later, cell culture medium was collected to determine VEGF concentration using an ELISA kit (R&D systems, cat #DVE00) following the manufacturer's instruction.
The EC50 is calculated by GraphPad Prism using the dose-response-inhibition (four parameter) equation. The plate with cells was then subjected to CellTiter-Glo luminescence cell viability assay (Promega) to determine the effect of these compounds on cell numbers after the above treatment.
`C=C1CCC2(O)c3c(ccc(Oc4cc(F)cc(C#N)c4)c31)C(F)(F)C2(F)F` (stereo not drawn) [Compound 3, 3-fluoro-5-((1,1,2,2-tetrafluoro-8a-hydroxy-6-methylene-1,2,6,7,8,8a-hexahydroacenaphthylen-5-yl)oxy)benzonitrile] showed an EC50 of 534 nM.
In the case of `N#Cc1cc(F)cc(Oc2ccc3c4c2CCCC4(O)C(F)(F)C3(F)F)c1` (stereo not drawn) [Compound 1, 3-fluoro-5-((1,1,2,2-tetrafluoro-8a-hydroxy-1,2,6,7,8,8a-hexahydroacenaphthylen-5-yl)oxy)benzonitrile], the EC50 is reported as 37 nM.
`CC1CCC2(O)c3c(ccc(Oc4cc(F)cc(C#N)c4)c31)C(F)(F)C2(F)F` (single isomer, unassigned) [one of 7-1 and 7-2] gave an EC50 of 372 nM.
Compound `CC1CCC2(O)c3c(ccc(Oc4cc(F)cc(C#N)c4)c31)C(F)(F)C2(F)F` (single isomer, unassigned) [the other of 7-1 and 7-2] has an EC50 of 3050 nM.
Work on `N#Cc1cc(F)cc(Oc2ccc3c4c2CCC[C@]4(O)C(F)(F)C3(F)F)c1` [Compound 2, (R)-3-fluoro-5-((1,1,2,2-tetrafluoro-8a-hydroxy-1,2,6,7,8,8a-hexahydroacenaphthylen-5-yl)oxy)benzonitrile] yielded an EC50 of 6 nM.
For `N#Cc1cc(F)cc(Oc2ccc3c4c2C(F)C(F)(F)CC4(O)C(F)(F)C3(F)F)c1` (stereo not drawn) [8-1 or 8-2], the EC50 was 23 nM.
